Here are results for 22 compounds from patent publication US10472356B2, “Bicyclic ketone sulfonamide compounds” (AMGEN INC., priority 2015, dated 2019).

The structures appear in SMILES notation. Some results are limits rather than exact numbers.

For the first experiment, the target named is T1, human Nav1.7 (Homo sapiens, UniProt Q15858).
T1 construct: expressed in transfected cells; host or cells: HEK293
T1 sequence (Q15858 whole entry): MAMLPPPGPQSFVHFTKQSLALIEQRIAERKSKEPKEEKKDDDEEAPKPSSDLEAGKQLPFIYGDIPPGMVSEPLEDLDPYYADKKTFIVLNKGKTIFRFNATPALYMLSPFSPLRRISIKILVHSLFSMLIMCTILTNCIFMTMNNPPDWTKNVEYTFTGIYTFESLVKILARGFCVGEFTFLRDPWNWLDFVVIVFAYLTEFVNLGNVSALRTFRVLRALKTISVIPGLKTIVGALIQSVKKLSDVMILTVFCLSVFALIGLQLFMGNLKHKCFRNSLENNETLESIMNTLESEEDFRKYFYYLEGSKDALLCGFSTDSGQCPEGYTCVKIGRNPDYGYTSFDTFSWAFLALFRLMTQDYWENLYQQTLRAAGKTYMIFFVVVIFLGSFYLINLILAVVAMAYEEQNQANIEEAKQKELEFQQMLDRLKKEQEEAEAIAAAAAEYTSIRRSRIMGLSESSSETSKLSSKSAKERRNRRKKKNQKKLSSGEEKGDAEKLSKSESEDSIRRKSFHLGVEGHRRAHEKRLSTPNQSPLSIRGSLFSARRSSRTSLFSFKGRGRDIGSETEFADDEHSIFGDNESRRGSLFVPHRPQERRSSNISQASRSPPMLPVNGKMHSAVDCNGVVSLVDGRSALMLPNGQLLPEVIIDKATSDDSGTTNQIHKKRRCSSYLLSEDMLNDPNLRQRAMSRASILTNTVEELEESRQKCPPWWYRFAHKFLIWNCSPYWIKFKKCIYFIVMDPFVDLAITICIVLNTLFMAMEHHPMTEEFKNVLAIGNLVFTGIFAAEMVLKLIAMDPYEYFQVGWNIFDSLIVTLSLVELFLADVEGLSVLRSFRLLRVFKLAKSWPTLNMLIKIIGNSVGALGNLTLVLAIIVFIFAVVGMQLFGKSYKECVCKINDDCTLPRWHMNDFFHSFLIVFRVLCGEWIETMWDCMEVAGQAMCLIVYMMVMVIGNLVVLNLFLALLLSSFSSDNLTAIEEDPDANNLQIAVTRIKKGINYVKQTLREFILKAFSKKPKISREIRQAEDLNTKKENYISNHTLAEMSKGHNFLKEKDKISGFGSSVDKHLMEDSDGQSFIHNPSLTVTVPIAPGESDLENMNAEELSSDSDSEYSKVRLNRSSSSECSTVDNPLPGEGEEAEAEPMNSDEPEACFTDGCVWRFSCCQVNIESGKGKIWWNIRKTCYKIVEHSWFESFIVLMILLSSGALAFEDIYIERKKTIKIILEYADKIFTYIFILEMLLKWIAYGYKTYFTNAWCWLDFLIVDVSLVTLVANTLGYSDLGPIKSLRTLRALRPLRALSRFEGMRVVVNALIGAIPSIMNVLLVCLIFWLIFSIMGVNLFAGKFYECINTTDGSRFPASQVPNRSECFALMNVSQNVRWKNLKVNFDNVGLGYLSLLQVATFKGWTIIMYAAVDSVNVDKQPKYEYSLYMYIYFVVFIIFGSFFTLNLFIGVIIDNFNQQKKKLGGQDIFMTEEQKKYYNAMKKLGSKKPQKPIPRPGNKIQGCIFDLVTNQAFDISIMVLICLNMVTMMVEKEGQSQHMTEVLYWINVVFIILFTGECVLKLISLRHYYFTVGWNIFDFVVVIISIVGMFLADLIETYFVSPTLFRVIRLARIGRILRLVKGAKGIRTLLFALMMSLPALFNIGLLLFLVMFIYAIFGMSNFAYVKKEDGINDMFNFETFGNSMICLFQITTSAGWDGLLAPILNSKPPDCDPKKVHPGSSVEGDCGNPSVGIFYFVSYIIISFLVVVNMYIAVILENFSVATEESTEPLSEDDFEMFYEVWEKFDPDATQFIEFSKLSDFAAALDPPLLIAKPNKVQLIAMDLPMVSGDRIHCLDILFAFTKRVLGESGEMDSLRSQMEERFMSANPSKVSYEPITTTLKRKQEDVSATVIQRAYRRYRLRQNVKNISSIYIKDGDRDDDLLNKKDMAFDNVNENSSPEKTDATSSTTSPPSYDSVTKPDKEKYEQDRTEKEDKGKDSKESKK
Description: Nav 1.7 In Vitro PatchXpress (PX) Assay. The experiment is classed as cell-based. The note with it: HEK 293 cells stably transfected with human Nav1.7; PatchXpress whole cell voltage clamp; partially inactivated state (holding potential yielding 20 to 50% inactivation); read-out: hNav1.7 PX IC50. On the procedure:
Nav 1.7 In Vitro PatchXpress (PX) Assay
HEK 293 cells stably transfected with human Nav1.7 were recorded in whole cell voltage clamp mode with the PatchXpress automated electrophysiology system (Molecular Devices, LLC, Sunnyvale, Calif.). Compound effects were measured on a partially inactivated state of the sodium channel. Cells were clamped to a holding potential yielding 20 to 50% inactivation. To elicit sodium current, channels were activated by pulsing to −10 mV for 20 msec. This voltage protocol was repeated at a rate of 0.1 Hz throughout the experiment. A single concentration of test compound was applied to cells for a duration of 3 minutes. Peak sodium current was measured at the end of the compound addition period to determine percent inhibition. Three to five cells were tested per concentration, and IC50 curves were fitted to percent inhibition as a function of concentration.
With `COc1cc(-c2cc(F)cc(F)c2)c(F)cc1-n1c2c(ccc1=O)CN(S(=O)(=O)Nc1ncon1)CC2` (racemic) [Example 17-(Rac), (Rac)-N-1,2,4-oxadiazol-3-yl-2-oxo-1-(2,3′,5′-trifluoro-5-methoxy-4-biphenylyl)-1,5,7,8-tetrahydro-1,6-naphthyridine-6(2H)-sulfonamide], the half-inhibitory concentration (IC50) – broadly, the midpoint of a concentration-inhibition curve – came to 1120 nM. Same read-out and setting: under `COc1cc(-c2cccc(C(F)(F)F)c2)c(Cl)cc1-n1c2c(ccc1=O)CN(S(=O)(=O)Nc1cccnn1)CC2` (racemic) [Example 91-(Rac), (Rac)-1-(2-chloro-5-methoxy-3′-(trifluoromethyl)-[1,1′-biphenyl]-4-yl)-2-oxo-N-(pyridazin-3-yl)-1,2,7,8-tetrahydro-1,6-naphthyridine-6(5H)-sulfonamide] stands 29.9 nM; under `COc1cc(-c2ccc(F)c(C)c2)c(Cl)cc1-n1c2c(ccc1=O)CN(S(=O)(=O)Nc1cccnn1)CC2` (single isomer, unassigned) [Example 92-P, P-1-(2-chloro-4′-fluoro-5-methoxy-3′-methyl-[1,1′-biphenyl]-4-yl)-2-oxo-N-(pyridazin-3-yl)-1,2,7,8-tetrahydro-1,6-naphthyridine-6(5H)-sulfonamide], 41.4 nM. The same measure, in the same setting: as for `COc1cc(-c2ccc(F)c(C)c2)c(C)cc1-n1c2c(ccc1=O)CN(S(=O)(=O)Nc1cccnn1)CC2` (single isomer, unassigned) [Example 93-P, P-1-(4′-fluoro-5-methoxy-2,3′-dimethyl-[1,1′-biphenyl]-4-yl)-2-oxo-N-(pyridazin-3-yl)-1,2,7,8-tetrahydro-1,6-naphthyridine-6(5H)-sulfonamide], the figure is 116 nM; as for `COc1ccc(-c2ccc(Cl)c(C)c2)cc1-n1c2c(ccc1=O)CN(S(=O)(=O)Nc1cccnn1)CC2` [Example 56-P, P-1-(4′-chloro-4-methoxy-3′-methyl-3-biphenylyl)-2-oxo-N-3-pyridazinyl-1,5,7,8-tetrahydro-1,6-naphthyridine-6(2H)-sulfonamide], 493 nM. The same measure, in the same setting: under `COc1cc(-c2ccc(Cl)c(F)c2)c(F)cc1-n1c2c(ccc1=O)CN(S(=O)(=O)Nc1cccnn1)CC2` [Example 47, P-1-(4′-chloro-2,3′-difluoro-5-methoxy-4-biphenylyl)-2-oxo-N-3-pyridazinyl-1,5,7,8-tetrahydro-1,6-naphthyridine-6(2H)-sulfonamide] stands 95.1 nM; under `COc1cc(-c2cc(F)cc(F)c2)c(F)cc1-n1c2c(ccc1=O)CN(S(=O)(=O)Nc1ccon1)CC2` (single isomer, unassigned) [Example 25-M, M-N-3-isoxazolyl-2-oxo-1-(2,3′,5′-trifluoro-5-methoxy-4-biphenylyl)-1,5,7,8-tetrahydro-1,6-naphthyridine-6(2H)-sulfonamide], greater than 1000 nM; under `COc1cc(-c2ccc(F)c(Cl)c2)c(F)cc1-n1c2c(ccc1=O)CN(S(=O)(=O)Nc1cccnn1)CC2` [Example 48, P-1-(3′-chloro-2,4′-difluoro-5-methoxy-4-biphenylyl)-2-oxo-N-3-pyridazinyl-1,5,7,8-tetrahydro-1,6-naphthyridine-6(2H)-sulfonamide], 80.3 nM.

Take `COc1cc(-c2ccc(C)c(Cl)c2)c(F)cc1-n1c2c(ccc1=O)CN(S(=O)(=O)Nc1cccnn1)CC2` [Example 44, P-1-(3′-chloro-2-fluoro-5-methoxy-4′-methyl-4-biphenylyl)-2-oxo-N-3-pyridazinyl-1,5,7,8-tetrahydro-1,6-naphthyridine-6(2H)-sulfonamide]: the IC50 came out at 73.2 nM. Same read-out and setting: as for `COc1ccc(-c2ccc(C)c(Cl)c2)cc1-n1c2c(ccc1=O)CN(S(=O)(=O)Nc1cccnn1)CC2` (single isomer, unassigned) [Example 55-M, M-1-(3′-chloro-4-methoxy-4′-methyl-3-biphenylyl)-2-oxo-N-3-pyridazinyl-1,5,7,8-tetrahydro-1,6-naphthyridine-6(2H)-sulfonamide], the figure is greater than 1000 nM; as for `COc1cc(-c2ccc(Cl)c(C)c2)c(F)cc1-n1c2c(ccc1=O)CN(S(=O)(=O)Nc1ccncn1)CC2` [Example 1-P, P-1-(4′-chloro-2-fluoro-5-methoxy-3′-methyl-4-biphenylyl)-2-oxo-N-4-pyrimidinyl-1,5,7,8-tetrahydro-1,6-naphthyridine-6(2H)-sulfonamide], 29.6 nM. On the same count and under the same terms, as for `COc1cc(-c2cccc(C(F)(F)F)c2)c(F)cc1-n1c2c(ccc1=O)CN(S(=O)(=O)Nc1cccnn1)CC2` [Example 45, P-1-(2-fluoro-5-methoxy-3′-(trifluoromethyl)-4-biphenylyl)-2-oxo-N-3-pyridazinyl-1,5,7,8-tetrahydro-1,6-naphthyridine-6(2H)-sulfonamide], the figure is 29.8 nM. `COc1cc(-c2cnc(OC)c(Cl)c2)c(F)cc1-n1c2c(ccc1=O)CN(S(=O)(=O)Nc1cccnn1)CC2` [Example 50, P-1-(4-(5-chloro-6-methoxy-3-pyridinyl)-5-fluoro-2-methoxyphenyl)-2-oxo-N-3-pyridazinyl-1,5,7,8-tetrahydro-1,6-naphthyridine-6(2H)-sulfonamide]: the IC50 amounted to 172 nM. In the case of `COc1cc(-c2cc(F)c(F)c(F)c2)c(F)cc1-n1c2c(ccc1=O)CN(S(=O)(=O)Nc1cccnn1)CC2` [Example 46, P-2-oxo-N-3-pyridazinyl-1-(2,3′,4′,5′-tetrafluoro-5-methoxy-4-biphenylyl)-1,5,7,8-tetrahydro-1,6-naphthyridine-6(2H)-sulfonamide], the IC50 worked out at 102 nM.

`COc1cc(-c2ccc(F)c(C)c2)c(F)cc1-n1c2c(ccc1=O)CN(S(=O)(=O)Nc1ccon1)CC2` (racemic) [Example 22-(Rac), (Rac)-1-(2,4′-difluoro-5-methoxy-3′-methyl-4-biphenylyl)-N-3-isoxazolyl-2-oxo-1,5,7,8-tetrahydro-1,6-naphthyridine-6(2H)-sulfonamide]: the concentration for half-maximal inhibition (IC50) turned out to be 255 nM. The same measure, in the same setting: under `COc1cc(-c2cc(F)cc(F)c2)c(F)cc1-n1c2c(ccc1=O)CN(S(=O)(=O)Nc1ccon1)CC2` (racemic) [Example 25-(Rac), (Rac)-N-3-isoxazolyl-2-oxo-1-(2,3′,5′-trifluoro-5-methoxy-4-biphenylyl)-1,5,7,8-tetrahydro-1,6-naphthyridine-6(2H)-sulfonamide] stands 209 nM; under `COc1cc(C(F)(F)F)ccc1-n1c2c(ccc1=O)CN(S(=O)(=O)Nc1ccon1)CC2` (single isomer, unassigned) [Example 26-P, P-N-3-isoxazolyl-1-(2-methoxy-4-(trifluoromethyl)phenyl)-2-oxo-1,5,7,8-tetrahydro-1,6-naphthyridine-6(2H)-sulfonamide], greater than 1000 nM; under `COc1cc(-c2cc(F)cc(Cl)c2)c(F)cc1-n1c2c(ccc1=O)CN(S(=O)(=O)Nc1ccc(F)cn1)CC2` (single isomer, unassigned) [Example 12-M, M-1-(3′-chloro-2,5′-difluoro-5-methoxy-4-biphenylyl)-N-(5-fluoro-2-pyridinyl)-2-oxo-1,5,7,8-tetrahydro-1,6-naphthyridine-6(2H)-sulfonamide], 9340 nM.

Take `COc1cc(-c2cc(F)cc(F)c2)c(F)cc1-n1c2c(ccc1=O)CN(S(=O)(=O)Nc1ncon1)CC2` (single isomer, unassigned) [Example 17-P, P-N-1,2,4-oxadiazol-3-yl-2-oxo-1-(2,3′,5′-trifluoro-5-methoxy-4-biphenylyl)-1,5,7,8-tetrahydro-1,6-naphthyridine-6(2H)-sulfonamide]: the IC50 is greater than 1000 nM. Take `COc1cc(-c2cccc(Cl)c2F)c(F)cc1-n1c2c(ccc1=O)CN(S(=O)(=O)Nc1cccnn1)CC2` [Example 49, P-1-(3′-chloro-2,2′-difluoro-5-methoxy-4-biphenylyl)-2-oxo-N-3-pyridazinyl-1,5,7,8-tetrahydro-1,6-naphthyridine-6(2H)-sulfonamide]: the IC50 stood at 168 nM.

As for `COc1cc(C(F)(F)F)ccc1-n1c2c(ccc1=O)CN(S(=O)(=O)Nc1ccon1)CC2` (single isomer, unassigned) [Example 26-M, M-N-3-isoxazolyl-1-(2-methoxy-4-(trifluoromethyl)phenyl)-2-oxo-1,5,7,8-tetrahydro-1,6-naphthyridine-6(2H)-sulfonamide], the IC50 is greater than 1000 nM.

In the case of `COc1ccccc1-n1c2c(ccc1=O)CN(S(=O)(=O)Nc1ccon1)CC2` (racemic) [Example 27, (Rac)-N-3-isoxazolyl-1-(2-methoxyphenyl)-2-oxo-1,5,7,8-tetrahydro-1,6-naphthyridine-6(2H)-sulfonamide], the IC50 was greater than 1000 nM.

Another experiment has as its target T1, human Nav1.7. Description: Nav 1.7 IWB In Vitro Assay (IonWorks Barracuda). Type of experiment: cell-based. The note with it: HEK293 cells stably transfected with human Nav 1.7; IonWorks Barracuda population patch-clamp; cells clamped to −20 mV for 4 minutes with compound; 26th pulse; read-out: hNav1.7 IWB IC50. On the procedure:
Nav 1.7 IWB In Vitro Assay
HEK293 cells stably transfected with human Nav 1.7 were recorded in population patch-clamp mode with the IonWorks© Barracuda (IWB) automated electrophysiology system (Molecular Devices, LLC, Sunnyvale, Calif.). From a holding potential of −110 mV, sodium currents were elicited by a train of 26 depolarizations of 150 ms duration to −20 mV at a frequency of 5 Hz. Cells were then clamped to −20 mV for a period of 4 minutes in the presence of a single concentration of test compound. Following this compound incubation period, cells were clamped to −110 mV for three seconds to recover unbound channels and put through the same 26 pulse voltage protocol as above. Peak inward current during the 26th pulse to −20 mV in the presence of compound was divided by the peak inward current evoked by the 26th pulse to −20 mV in the absence of compound to determine percent inhibition. Concentration-response curves of percent inhibition as a function of concentration were generated to calculate IC50 values.
In general terms: In patch-clamp work, channel activity is measured electrically.
As for `COc1cc(-c2cc(F)cc(F)c2)c(F)cc1-n1c2c(ccc1=O)CN(S(=O)(=O)Nc1ncon1)CC2` (racemic) [Example 17-(Rac), (Rac)-N-1,2,4-oxadiazol-3-yl-2-oxo-1-(2,3′,5′-trifluoro-5-methoxy-4-biphenylyl)-1,5,7,8-tetrahydro-1,6-naphthyridine-6(2H)-sulfonamide], the IC50 turned out to be 191 nM. On the same count and under the same terms, under `COc1cc(-c2cccc(C(F)(F)F)c2)c(Cl)cc1-n1c2c(ccc1=O)CN(S(=O)(=O)Nc1cccnn1)CC2` (racemic) [Example 91-(Rac), (Rac)-1-(2-chloro-5-methoxy-3′-(trifluoromethyl)-[1,1′-biphenyl]-4-yl)-2-oxo-N-(pyridazin-3-yl)-1,2,7,8-tetrahydro-1,6-naphthyridine-6(5H)-sulfonamide] stands 11.2 nM. The same measure, in the same setting: as for `COc1cc(-c2ccc(F)c(C)c2)c(Cl)cc1-n1c2c(ccc1=O)CN(S(=O)(=O)Nc1cccnn1)CC2` (single isomer, unassigned) [Example 92-P, P-1-(2-chloro-4′-fluoro-5-methoxy-3′-methyl-[1,1′-biphenyl]-4-yl)-2-oxo-N-(pyridazin-3-yl)-1,2,7,8-tetrahydro-1,6-naphthyridine-6(5H)-sulfonamide], the figure is 5.9 nM. On the same count and under the same terms, as for `COc1cc(-c2ccc(F)c(C)c2)c(C)cc1-n1c2c(ccc1=O)CN(S(=O)(=O)Nc1cccnn1)CC2` (single isomer, unassigned) [Example 93-P, P-1-(4′-fluoro-5-methoxy-2,3′-dimethyl-[1,1′-biphenyl]-4-yl)-2-oxo-N-(pyridazin-3-yl)-1,2,7,8-tetrahydro-1,6-naphthyridine-6(5H)-sulfonamide], the figure is 21.8 nM.
